In US20260274810A1, “NOVEL MITOFUSIN INHIBITORS” (ALBERT EINSTEIN COLLEGE OF MEDICINE, priority 2023, published 2026):
pIC50: −log10 of the molar value. Each block holds one molecule with its values, some of them ahead of it. Numbered stars: 1 amine (or outer) side, 2 acyl side, 3 side chain; on linkers, the order of the positions; unused ones are H or OH. Bridge positions count the residues as written; N and C are the ends. Square brackets hold non-standard residues; d marks the D form. Peptide text beside a SMILES is read from it. I, II: the chains in the order shown. Hexamethylenediamine = C(CCCN[*:2])CCN[*:1]; Dip = N[C@H](C(=O)O)C(c1ccccc1)c1ccccc1; Chg = N[C@H](C(=O)O)C1CCCCC1; NMeA = CN[C@@H](C)C(=O)O

Legend:
[1] = test system: cells; experiment: Cell death assay (Annexin V / PI); type: cell-based
Description: Cell death assay. Cells (2×10^5 cells/well) were seeded in a 6-well plate and treated with the indicated drugs for 6 hours. Cells were dissociated using Accutase (Thermo Fisher; Cat. #00-4555-56) in order to avoid accidental exposure of phosphatidylserine on the outer plasma membrane. Cell death was evaluated with Dead Cell Apoptosis Kit with Annexin V Alexa Fluor™ 488 & Propidium Iodide (Thermo Fisher; Cat. #V13241) according to manufacturer's protocol. Data was acquired by BD LSRII flow cytometer system using BD FACSDiva software. Data was analyzed by FlowJo (BD).

[2] = test system: MFNs; conditions: reported small molecule; cited from earlier work
[3] = biological target: T1, HR2 domain of MFN2 (Homo sapiens, UniProt O95140); experiment: Microscale thermophoresis (MST) binding
T1 construct: Human MFN2 residues 678-757 corresponding to the HR2 domain; made in house; host or cells: E. coli BL21(DE3) CodonPlus (DE3)-RIPL
T1 sequence (O95140 678-757): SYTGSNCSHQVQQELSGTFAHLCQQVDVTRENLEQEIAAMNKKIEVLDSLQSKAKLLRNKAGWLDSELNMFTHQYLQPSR
Description: Freshly purified His-tagged MFN2-HR2 domain was used for Microscale Thermophoresis (MST) binding studies. For protein labelling, a fresh stock of 5 M His-tag-RED-tris-NTA 2nd generation dye (Nanotemper) in 25 mM Hepes pH 7.5, 100 mM NaCl, 0.005% Tween-20 (assay buffer) was used to label 500 nM of MFN2-HR2 in the same buffer. The labeling reaction was incubated for 30 min at RT and centrifuged at 15.000×g at 4° C. for 10 min. Labelled protein from the supernatant was kept on ice and used immediately. Compounds were serially diluted in 100% DMSO. Immediately before mixing with labeled protein, the dilution series was transferred in assay buffer to reach 2% DMSO. 10 μl of each compound in the final series was mixed with 10 µl of labeled protein and samples were incubated for 5 min at 30° C. before MST measurement using a MonolithNT.115 instrument (Nanotemper). Peptides were diluted in assay buffer plus 2% DMSO and treated as above. […] Kd values were obtained from non-linear regression fits of normalized data to a three or four parameter logistic curve, using GraphPad Prism 9.

[4] = test system: caspase-3/7 in MEFs; experiment: Caspase-3/7 activation assay; type: cell-based, mouse; conditions: 6 hr
Description: Caspase-3/7 activation assay. Cells (5×10^3 cells/well) were seeded in a 96-well white plate and treated with MASM7, MFI8. Caspase 3/7 activation was measured after 6 hr by addition of the Caspase-Glo 3/7 reagent according to the manufacturer's protocol (Promega). Luminescence was detected by a F200 PRO microplate reader (TECAN). Caspase assays were performed in at least triplicate and the data normalized to vehicle-treated control wells. Dilutions of MASM7 or MFI8 were performed using a TECAN D300e Digital Dispenser from 10 mM stocks.

[5] = test system: MEFs; experiment: Mitochondrial aspect ratio (Mito AR), live cell imaging; conditions: for mitochondrial aspect ratio / mitochondrial fragmentation: WT cells
Description: Live cell imaging. MEFs were seeded on chamber slides (MatTek Corporation: 35 mm dishes, No. 1.5, 14 mm glass diameter) at ~70% confluence. […] Images were taken with Leica SP5 inverted confocal microscope. Data were analyzed with Image J software. >200 mitochondria were measured per condition in mitochondrial aspect ratio.
Measurement of mitochondrial aspect ratio (Mito AR). Images that depict stained mitochondria with mitotracker green were analyzed using FIJI We measured for each mitochondrion its length and width. Then, we divided the length by the width for each mitochondrion to get its mitochondrial aspect ratio. >200 mitochondria were measured per treatment.
MEFs were seeded on chamber slides (MatTek Corporation: 35 mm dishes, No. 1.5, 14 mm glass diameter) at ~70% confluence. Cells were treated with compounds. Then, cells were stained with MitoTracker Green (200 nM, Invitrogen) for 20 min at 37° C. After treatments, media was replaced with FluoroBrite™ DMEM (Invitrogen) supplemented with 10% FBS, 100 U ml^−1 penicillin/streptomycin, 2 mM L-glutamine and compound prior image acquisition. Images were taken with Leica SP5 inverted confocal microscope. Data were analyzed with Image J software. >200 mitochondria were measured per condition in mitochondrial aspect ratio. Measurement of mitochondrial aspect ratio (Mito AR). Images that depict stained mitochondria with mitotracker green were analyzed using FIJI software. Each mitochondrion was measured for its length and width. Then, the length was divided by the width for each mitochondrion to get its mitochondrial aspect ratio. >200 mitochondria were measured per treatment.

[6] = mouse liver microsome assay; type: in vitro ADME; conditions: FIG. 2

SMILES: CN[C@@H](C)C(=O)N[C@H](C(=O)N1CCC[C@H]1C(=O)N[C@H](C(=O)NCCCCCCNC(=O)[C@@H](NC(=O)[C@@H]1CCCN1C(=O)[C@@H](NC(=O)[C@H](C)NC)C1CCCCC1)C(c1ccccc1)c1ccccc1)C(c1ccccc1)c1ccccc1)C1CCCCC1 [BV6, reference compound] (I: H-[NMeA][Chg]P[Dip] / II: H-[NMeA][Chg]P[Dip]; linker I:C-II:C via Hexamethylenediamine)
- cell death on BV6 treatment ([1]; deletion of MFNs): sensitized cells to BV6 treatment

SMILES: Cc1oncc1C(=O)Nc1ccc(C(F)(F)F)cc1 [Leflunomide]
- MFNs protein levels [2]: alters MFNs protein levels through loss of pyrimidine synthesis

- binding to the HR2 domain of MFN2 [3]: did not demonstrate measurable binding
- caspase-3/7 activity [4]: did not increase caspase-3/7 activity
SMILES: Cc1cccc(NC(C)c2ccccc2O)c1C (stereo not shown) [MFI22]
- sensitization to BV6-induced cell death ([1]; combined with BV6): did not sensitize cells to BV6 treatment
- mitochondrial aspect ratio / mitochondrial fragmentation [5]: significantly reduced the capacity of the compound to promote mitochondrial fragmentation

- binding to the HR2 domain of MFN2 [3]: did not demonstrate measurable binding
SMILES: Cc1cccc(NC(C)c2cccc(Cl)c2)c1C (stereo not shown) [MFI26]
- mitochondrial aspect ratio / mitochondrial fragmentation [5]: detrimental for the activity

- half life (t½) [6]: increased half life
- pIC50 ([5]; Mus musculus, 6 h, read-out: IC50 (decrease of Mito AR)): 5.75
SMILES: Cc1cccc(NC(=O)c2cc(Cl)cc(-c3ccccn3)c2O)c1C [MFI43]
